Data published in ChEMBL document CHEMBL1135608, “Discovery of the first nonpeptide agonist of the GPR14/urotensin-II receptor: 3-(4-chlorophenyl)-3-(2- (dimethylamino)ethyl)isochroman-1-one (AC-7954)” (J Med Chem, 2002).

Tests used:
[1] = molecular target: T1, Urotensin-2 receptor (Homo sapiens, UniProt Q9UKP6); experiment: Potency against human Urotensin 2 receptor
T1 sequence (Q9UKP6 whole entry): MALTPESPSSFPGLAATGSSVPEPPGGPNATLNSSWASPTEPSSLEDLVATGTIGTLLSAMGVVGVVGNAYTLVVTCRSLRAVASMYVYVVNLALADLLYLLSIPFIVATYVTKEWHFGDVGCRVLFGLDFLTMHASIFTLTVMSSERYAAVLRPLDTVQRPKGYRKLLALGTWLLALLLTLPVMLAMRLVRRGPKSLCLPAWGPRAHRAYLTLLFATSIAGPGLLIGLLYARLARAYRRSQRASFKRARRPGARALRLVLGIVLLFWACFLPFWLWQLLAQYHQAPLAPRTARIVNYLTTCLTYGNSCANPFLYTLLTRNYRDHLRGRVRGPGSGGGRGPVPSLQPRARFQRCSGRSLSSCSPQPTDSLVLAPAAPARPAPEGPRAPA

[2] = Lipophilicity of the compound; type: physicochemical; settings: octanol/water
[3] = molecular target: T2, Urotensin-2 receptor (Rattus norvegicus, UniProt P49684); experiment: Potency against rat Urotensin 2 receptor
T2 sequence (P49684 whole entry): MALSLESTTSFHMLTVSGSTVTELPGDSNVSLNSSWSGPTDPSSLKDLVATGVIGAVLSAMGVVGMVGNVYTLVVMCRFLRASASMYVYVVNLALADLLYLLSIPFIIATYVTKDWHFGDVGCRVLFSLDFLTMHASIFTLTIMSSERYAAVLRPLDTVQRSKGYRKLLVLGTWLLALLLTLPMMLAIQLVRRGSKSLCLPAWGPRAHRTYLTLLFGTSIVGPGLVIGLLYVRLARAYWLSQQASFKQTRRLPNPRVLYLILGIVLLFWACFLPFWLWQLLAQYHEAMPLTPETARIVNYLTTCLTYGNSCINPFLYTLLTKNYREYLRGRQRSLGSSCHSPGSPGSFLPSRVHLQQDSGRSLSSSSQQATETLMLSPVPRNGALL

[4] = Dissociation constant of the compound; type: physicochemical

EC50 [1]	logD [2]	EC50 [3]	pKa [4]	Compound
251 nM	–	–	–	CN(C)CCC1(c2ccc(Cl)cc2)Cc2ccccc2C(=O)O1 (single isomer, unassigned; (+))
316 nM	2.1	200 nM	8.7	CN(C)CCC1(c2ccc(Cl)cc2)Cc2ccccc2C(=O)O1 (stereo in doubt; 1)
